In ChEMBL document CHEMBL1177809, “Motualevic acids and analogs: synthesis and antimicrobial structure-activity relationships” (2010):
In brackets after ≈: the same amount, converted by molar mass. Activity calls are given as the source filed them. No cut-off for these calls is given here.

Legend:
[1] = system: Enterococcus faecium; experiment: Antibacterial activity against Enterococcus faecium at 25 ug/disk by agar disk diffusion assay; type: functional; conditions: read-out: IZ
[2] = system: Enterococcus; experiment: Antibacterial activity against vancomycin-resistant Enterococcus by microbroth dilution assay; type: functional
[3] = system: Staphylococcus aureus; experiment: Antibacterial activity against Staphylococcus aureus by microbroth dilution assay; type: functional
[4] = system: Staphylococcus aureus; experiment: Antibacterial activity against methicillin-resistant Staphylococcus aureus by microbroth dilution assay; type: functional
[5] = system: Staphylococcus aureus; experiment: Antibacterial activity against Staphylococcus aureus at 10 ug/disk by agar disk diffusion assay; type: functional; conditions: read-out: IZ
[6] = system: Enterococcus; experiment: Antibacterial activity against vancomycin-resistant Enterococcus at 25 ug/disk by agar disk diffusion assay; type: functional; conditions: read-out: IZ
[7] = system: Staphylococcus aureus; experiment: Antibacterial activity against methicillin-resistant Staphylococcus aureus at 10 ug/disk by agar disk diffusion assay; type: functional; conditions: read-out: IZ
[8] = system: Enterococcus faecium; experiment: Antibacterial activity against Enterococcus faecium by microbroth dilution assay; type: functional
[9] = system: Staphylococcus aureus; experiment: Antibacterial activity against Staphylococcus aureus at 25 ug/disk by agar disk diffusion assay; type: functional; conditions: read-out: IZ
[10] = system: Enterococcus faecium; experiment: Antibacterial activity against Enterococcus faecium at 10 ug/disk by agar disk diffusion assay; type: functional; conditions: read-out: IZ
[11] = system: Staphylococcus aureus; experiment: Antibacterial activity against methicillin-resistant Staphylococcus aureus at 25 ug/disk by agar disk diffusion assay; type: functional; conditions: read-out: IZ
[12] = system: Enterococcus; experiment: Antibacterial activity against vancomycin-resistant Enterococcus at 10 ug/disk by agar disk diffusion assay; type: functional; conditions: read-out: IZ
[13] = system: Staphylococcus aureus; experiment: Antibacterial activity against methicillin-resistant Staphylococcus aureus at 50 ug/disk by agar disk diffusion assay; type: functional; conditions: for zone of inhibition at 50 µg/disc: read-out: IZ
[14] = system: Staphylococcus aureus; experiment: Antibacterial activity against Staphylococcus aureus at 50 ug/disk by agar disk diffusion assay; type: functional; conditions: for zone of inhibition at 50 µg/disc: read-out: IZ
[15] = system: Enterococcus; experiment: Antibacterial activity against vancomycin-resistant Enterococcus at 5 ug/disk by agar disk diffusion assay; type: functional; conditions: read-out: IZ
[16] = system: Enterococcus; experiment: Antibacterial activity against vancomycin-resistant Enterococcus at 50 ug/disk by agar disk diffusion assay; type: functional, organism-based
[17] = system: Enterococcus faecium; experiment: Antibacterial activity against Enterococcus faecium at 50 ug/disk by agar disk diffusion assay; type: functional, organism-based
[18] = system: Enterococcus faecium; experiment: Antibacterial activity against Enterococcus faecium at 5 ug/disk by agar disk diffusion assay; type: functional; conditions: read-out: IZ

| Compound | zone of inhibition at 25 µg/disc [1] [mm] | MIC [2] | MIC [3] | MIC [4] | zone of inhibition at 25 µg/disc [6] [mm] | MIC [8] | zone of inhibition at 25 µg/disc [9] [mm] | zone of inhibition at 25 µg/disc [11] [mm] | inhibition zone (IZ) [13] | inhibition zone (IZ) [14] | further results |
| --- | --- | --- | --- | --- | --- | --- | --- | --- | --- | --- | --- |
| C[N+](C)(C)CCNC(=O)/C=C/CCCCCCCCCC=C(Br)Br.[Cl-] | 8 | 5.2 µg/mL | 2.4 µg/mL | 4.2 µg/mL | 8 | 3.7 µg/mL | – | – | – | – | zone of inhibition at 10 µg/disc [5]: 8 mm; zone of inhibition at 10 µg/disc [7]: 8 mm |
| O=C(O)CCCNC(=O)/C=C/CCCCCCCCCC=C(Br)Br | – | 8.5 µg/mL (≈ 18.2 µM) | 2.5 µg/mL (≈ 5.35 µM) | 2.4 µg/mL (≈ 5.14 µM) | 8 | 11 µg/mL (≈ 23.5 µM) | 8 | 8 | – | – | zone of inhibition at 10 µg/disc [10]: 8 mm; zone of inhibition at 10 µg/disc [12]: 8 mm |
| O=C(O)/C=C/CCCCCCCCCC=C(Br)Br [MOTUALEVIC ACID E] | – | – | – | – | – | – | – | – | inactive | – | zone of inhibition at 50 µg/disc [14]: 8 mm |
| O=C(O)CCCCCCCNC(=O)/C=C/CCC=C(Br)Br | – | – | – | – | – | – | 8 | 8 | – | – | – |
| O=C(O)CNC(=O)/C=C/CCC=C(Br)Br | – | – | – | – | – | – | – | – | inactive | inactive | – |
| CCC/C=C/C(=O)NCC(=O)O | – | – | – | – | – | – | – | – | inactive | inactive | – |
| CC(C)C[C@H](NC(=O)/C=C/CCCCCCCCCC=C(Br)Br)C(=O)O | – | 3.7 µg/mL (≈ 7.47 µM) | 2.3 µg/mL (≈ 4.64 µM) | 2.9 µg/mL (≈ 5.86 µM) | – | 6.4 µg/mL (≈ 12.9 µM) | 8 | 8 | – | – | zone of inhibition at 5 µg/disc [15]: 8 mm; zone of inhibition at 10 µg/disc [10]: 8 mm |
| O=C(O)CCNC(=O)/C=C/CCCCCCCCCC=C(Br)Br | 8 | 12 µg/mL (≈ 26.5 µM) | 3.6 µg/mL (≈ 7.94 µM) | 3.3 µg/mL (≈ 7.28 µM) | 8 | 11 µg/mL (≈ 24.3 µM) | – | – | – | – | zone of inhibition at 10 µg/disc [5]: 8 mm; zone of inhibition at 10 µg/disc [7]: 8 mm; zone of inhibition at 10 µg/disc [12]: 8 mm |
| O=C(O)CNC(=O)/C=C/CCCCCCCCCC=C(Br)Br [MOTUALEVIC ACID A] | 8 | 12 µg/mL (≈ 27.3 µM) | 11 µg/mL (≈ 25 µM) | 9.3 µg/mL (≈ 21.2 µM) | 8 | 9.3 µg/mL (≈ 21.2 µM) | – | – | – | – | zone of inhibition at 10 µg/disc [5]: 8 mm; zone of inhibition at 10 µg/disc [7]: 8 mm; zone of inhibition at 10 µg/disc [12]: 8 mm |
| O=C(O)[C@H]1CCCN1C(=O)/C=C/CCCCCCCCCC=C(Br)Br | 8 | 11 µg/mL (≈ 23 µM) | 18 µg/mL (≈ 37.6 µM) | 19 µg/mL (≈ 39.6 µM) | 8 | 15 µg/mL (≈ 31.3 µM) | 8 | 8 | – | – | zone of inhibition at 10 µg/disc [12]: 8 mm |
| O=C(O)C[C@H](NC(=O)/C=C/CCCCCCCCCC=C(Br)Br)C(=O)O | – | inactive | inactive | inactive | – | inactive | – | – | – | inactive | inhibition zone (IZ) [16]: inactive; inhibition zone (IZ) [17]: inactive |
| CCCCCCCCC/C=C/C(=O)NCC(=O)O | – | – | – | – | – | – | – | – | inactive | inactive | – |
| O=C(/C=C/CCCCCCCCCC=C(Br)Br)N[C@@H](Cc1ccccc1)C(=O)O | – | 2.9 µg/mL (≈ 5.48 µM) | 5 µg/mL (≈ 9.45 µM) | 4.4 µg/mL (≈ 8.31 µM) | – | 6.3 µg/mL (≈ 11.9 µM) | – | – | – | inactive | zone of inhibition at 5 µg/disc [15]: 8 mm; zone of inhibition at 5 µg/disc [18]: 8 mm; zone of inhibition at 50 µg/disc [13]: 8 mm |
| NC(=O)CNC(=O)/C=C/CCCCCCCCCC=C(Br)Br | – | – | – | – | – | – | – | – | inactive | inactive | – |
| O=C(O)CNC(=O)/C=C/CCCCCCCC=C(Br)Br | – | – | – | – | – | – | – | – | – | – | zone of inhibition at 50 µg/disc [13]: 8 mm; zone of inhibition at 50 µg/disc [14]: 8 mm |
| O=C(O)CN(CC(=O)O)C(=O)/C=C/CCCCCCCCCC=C(Br)Br | – | inactive | inactive | inactive | – | inactive | – | – | – | – | inhibition zone (IZ) [16]: inactive; inhibition zone (IZ) [17]: inactive; zone of inhibition at 50 µg/disc [13]: 8 mm; zone of inhibition at 50 µg/disc [14]: 8 mm |
| O=C(O)[C@@H]1CCCN1C(=O)/C=C/CCCCCCCCCC=C(Br)Br | 8 | 12 µg/mL (≈ 25 µM) | 10 µg/mL (≈ 20.9 µM) | 9 µg/mL (≈ 18.8 µM) | – | 10 µg/mL (≈ 20.9 µM) | 8 | – | – | – | zone of inhibition at 5 µg/disc [15]: 8 mm; zone of inhibition at 10 µg/disc [7]: 8 mm |
| CN(C)C(=O)CNC(=O)/C=C/CCCCCCCCCC=C(Br)Br | – | – | – | – | – | – | – | – | inactive | inactive | – |
| O=C(/C=C/CCCCCCCCCC=C(Br)Br)N[C@H](C(=O)O)c1ccccc1 | – | 22 µg/mL (≈ 42.7 µM) | 17 µg/mL (≈ 33 µM) | 21 µg/mL (≈ 40.8 µM) | 8 | 25 µg/mL (≈ 48.5 µM) | 8 | 8 | – | – | zone of inhibition at 10 µg/disc [10]: 8 mm; zone of inhibition at 10 µg/disc [12]: 8 mm |
| O=C(O)[C@@H]1C[C@H](O)CN1C(=O)/C=C/CCCCCCCCCC=C(Br)Br | 8 | – | – | – | 8 | – | – | 8 | – | inactive | – |
